Assay results reported in patent US20250276065A1, “Electro Magnetic Transducer Network in the Enhancement of Anti-infective Strategies” (priority 2022, published 2025).
“Also recorded” adds a separate entry of the source.

Columns and labels:
[1] = system: Staphylococcus epidermidis (SE) biofilm; assay: Biofilm eradication by PEMF and Con-A t-MNPs (Example 3, preliminary data); assay type: cell-based; conditions: PEMF + Con-A t-MNPs + antibiotic (FIG. 9)
Experimental: Using Staphylococcus epidermidis (SE), the biofilm eradication increased over 80% when PEMF was administered at a frequency of 50 kHz and a magnetic field amplitude of 1.2 mT along with t-MNPs functionalized with Concanavalin-A (Con-A) that target components of the bacterial membrane, cell wall, and extracellular matrix.

S. epidermidis biofilms [2] = assay: Eradication of pre-formed S. epidermidis biofilm by PEMF + antibiotic on plastic plates (Example 4, Phases 2 and 3); assay type: cell-based, Staphylococcus epidermidis; conditions: for combined PEMF + antibiotic treatment compared to theoretical additive effect: all time points, plastic 6-well plates; for eradication of S. epidermidis biofilm by antibiotic alone: no PEMF
Experimental: Staphylococcus epidermidis (S. epidermidis) ATCC 14990 was used for the biofilm experiments. The observed results were further confirmed by repeating said tests on S. epidermidis strain ATCC 35984. To test the above model the cells were first grown in Trypticase Soy Broth (TSB) (30 gl^−1 in purified water, autoclaved at 121° C. for 15 min; Becton, Dickinson and Company, Los Angeles, CA). The cells were incubated for 24 hours at 37° C. and then diluted 1:100 into TSB with glucose and plated. Five phases of experiments with this set-up have been successfully completed:
3) Evaluation of PEMFs ability to enhance the efficacy of antibiotic (specifically oxacillin and vancomycin) treatment against fully formed S. epidermidis biofilms on cell culture treated plastic plates.
For the biofilm inhibition experiments PEMF was applied to all experimental plates immediately after the cells were plated, with the […] being placed in a non-treated 37° C. incubator for the duration of treatment. Alternatively, for phases 2-4, cells were plated and then placed back in the non-treated 37° C. incubator for 24 hours (deemed adequate time for a biofilm to fully form through the literature and confirmed by preliminary experiments) before being exposed to PEMF.
In each phase, PEMF exposure was delivered for the following intervals: • 0 hours ([…] group, in 37° C. incubator for entirety of experiment) • 4 hours×2 cycles (exposed to PEMF hours 1-4, placed in 37° C. incubator hours 5-8, exposed to PEMF hours 9-12) • 12 hours continuously • 24 hours continuously
It is important to note that for all phase 3 trials, all PEMF exposure groups were tested as listed and compared to identical PEMF exposure times plus antibiotic. In phase 5 trials, PEMF exposure was delivered for alternate intervals of 0 hours, 3 hours, 6 hours, and 12 hours. This decision was due to the increased biofilm eradication ability of PEMF when combined with magnetic fNPs. As greater eradication was observed, it was deemed relevant to test shorter PEMF exposure intervals that are more applicable in the clinical setting.
At the conclusion of said experiments, crystal violet and alamarBlue assays were used to quantify the remaining viable biofilm in each well, and CFU/ml counts were used to quantify the planktonic (free-living) S. epidermidis cells.
The calculation performed to determine the theoretical additive effect of PEMF+antibiotic treatment and compare to the empirical effect of simultaneous PEMF and antibiotic treatment was a simple probability calculation: P(A)+(1−P(A))*P(B).

[3] = system: Staph epidermidis biofilm; assay: AlamarBlue biofilm eradication with fNPs or NPs, PEMF and vancomycin (Example 2, Phase I); assay type: cell-based, Staphylococcus epidermidis
Experimental: A series of experiments were conducted on Staphylococcus epidermidis and aureus. Staph epidermidis cells were grown, diluted, and aliquoted onto cell culture plates. Biofilm was formed by letting the bacteria grow for 48 hrs. in the tissue culture wells. Planktonic cell growth was measured using serial dilutions and subsequently determining CFU/mL counts. Biofilm assay was performed through AlamarBlue cell viability reagent and obtaining fluorescence readings at 544/590 excitation/emission (ex/em). Magnetic nanoparticles functionalized with a lectin, Concanavalin-A, were purchase from Sigma Aldrich. Vancomycin was used as an antibiotic.
Biofilm-containing plates were exposed to different conditions and specifically: • 1) No treatment • 2) Vancomycin alone • 3) PEMF alone • 4) PEMF+Vancomycin • 5) fNPs only (5 different fNPs concentration) • 6) PEMF+fNPs (5 different fNPs concentration) • 7) PEMF+fNPs+Vancomycin (5 different fNPs concentration) • 8) NPs only (5 different fNPs concentration) • 9) PEMF+NPs (5 different fNPs concentration)
The NPs in the functionalized and non-functionalized groups had the same composition and size distribution. PEMF exposure was delivered at 37° C. and various periods: 0 hrs, 6 hrs, and 12 hrs.

S. epidermidis biofilms [4] = assay: Crystal violet assay of total biomass of pre-formed S. epidermidis biofilms, PEMF with or without antibiotic (Example 1); assay type: cell-based, Staphylococcus epidermidis; conditions: for eradication of S. epidermidis biofilm by antibiotic alone: antibiotic alone at MIC, no PEMF, CV and alamarBlue (FIG. 2, FIG. 3); for combined PEMF + antibiotic treatment compared to theoretical additive effect: antibiotic at MIC, all PEMF time points, p<0.001
Experimental: Experiments were performed initially on S. epidermidis strain ATCC 14990 and further tested on S. epidermidis strain ATCC 35984, which is known to be a particularly strong biofilm former (Okajima, Y. et al., 2006, Invest Ophthalmol Vis Sci, 47(7):2971-2975). Trypticase soy broth (TSB) (30 g l^−1 in water, autoclaved at 121° C. for 15 minutes; BD Bacto TSB from Fisher Scientific) was used for in vitro growth of bacterial cell cultures, and 50% glucose was added to the medium at a final concentration of 0.25%. Sterile Falcon 6-well, clear, flat-bottom, tissue culture-treated, cell culture plates (Corning; Lot #1059012) and sterile CELLSTAR cell culture 24-well, PS, clear, tissue culture-treated plates (Greiner; Lot #E100501A) were used for S. epidermidis cell plating and biofilm growth (6-well plates used for crystal violet assay experiments; 24-well plates used for alamarBlue assay experiments).
The PEMF apparatus was custom made in the laboratory and was previously described in Ghalayani Esfahani et al. 2019 (Esfahani, A. et al., 2019, J Appl Microbiol, 126(1):87-101). Briefly, the PEMF apparatus consisted of an acrylic shelved rack with wrap-around Helmholtz coils, a signal generator, and a power supply. […] A digital oscilloscope (TBS1000C, Tektronix, Beaverton, OR) was used to monitor the signal waveform. All plates not under PEMF treatment were kept in a 37° C. incubator, identical temperature to the PEMF incubator.
S. epidermidis biofilms were grown by initially incubating freezer stock S. epidermidis cell scrapings in TSB media at 37° C. for 24 hours with shaking. Subsequently, the cells were diluted 1:100 into TSB media containing 0.25% glucose and then aliquoted, in 3 ml or 1 ml aliquots, into 6-well or 24-well plates, respectively. To test the ability of PEMF to disrupt pre-formed biofilms, inoculated plates were incubated for 24 hours to allow biofilm formation to occur. Negative controls of only TSB media containing 0.25% glucose (i.e., no cells) were also included for all plates to ensure no contamination occurred.
Crystal Violet (CV) assay was utilized to quantify biofilm formation in vitro as previously described (Esfahani, A. et al., 2019, J Appl Microbiol, 126(1):87-101). After incubation of the biofilm in the plates with or without treatment, the media and any non-adhered cells were removed. The well of the plates were then washed with Wash Buffer three times to ensure only biofilm-adhered cells remained. Next, wells were incubated with CV at room temperature for 15 minutes. The CV stain was then removed, and wells were washed twice with water. An 80% ethanol/20% acetone solution was then added and allowed to incubate for 20 minutes at room temperature to solubilize the dye. Absorbance readings were thereafter obtained at 570 nm and recorded for each well (BMG LABTECH, FLUOstar Omega plate reader).
To test possible synergism between PEMF exposure and antibiotic treatment, the MIC of both oxacillin and vancomycin for the specific S. epidermidis strain used was determined. S. epidermidis were first incubated in TSB media at 37° C. for 24 hours with shaking. […] After 24 hours, OD600 readings of the wells were taken. The MIC of each antibiotic was determined to be the lowest concentration to show inhibition of planktonic S. epidermidis cell growth.
To confirm the reproducibility of results, all experiments were run identically at least three times with similar outcomes before results were analyzed and reported. […]

Staphylococcal membranes = conditions: within 60 minutes of exposure; cited from earlier work
[5] = up to 20 times its minimum bactericidal concentration; cited from earlier work
[6] = system: S. aureus (both methicillin- and vancomycin-resistant), S. epidermidis, and P. aeruginosa; conditions: cited from earlier work
mammalian cells = conditions: cited from earlier work

Row | Compound | change in percentage of eradication when antibiotic was added to the nanoparticles [1] | combined PEMF + antibiotic treatment compared to theoretical additive effect (S. epidermidis biofilms [2]) | eradication of S. epidermidis biofilm by antibiotic alone (S. epidermidis biofilms [2]) | effect on eradication of adding Vancomycin to fNPs + PEMF ([3]; PEMF + fNPs + Vancomycin) | increase in biofilm eradication ([3]; antibiotic used alone) | eradication of S. epidermidis biofilm by antibiotic alone (S. epidermidis biofilms [4]) | combined PEMF + antibiotic treatment compared to theoretical additive effect (S. epidermidis biofilms [4]) | leakage of preloaded intracellular calcein dye (Staphylococcal membranes) | cytotoxicity levels [5] | antibacterial activity [6] | reduction of total biomass, quantified by CV assay (S. epidermidis biofilms [4]; PEMF 24-hour exposure + antibiotic at MIC simultaneously, pre-formed biofilm, vs 48-hour control group, mean) | toxicity to mammalian cells (mammalian cells)
1 | CN[C@H](CC(C)C)C(=O)N[C@H]1C(=O)N[C@@H](CC(N)=O)C(=O)N[C@H]2C(=O)N[C@H]3C(=O)N[C@H](C(=O)N[C@H](C(=O)O)c4cc(O)cc(O)c4-c4cc3ccc4O)[C@H](O)c3ccc(c(Cl)c3)Oc3cc2cc(c3O[C@@H]2O[C@H](CO)[C@@H](O)[C@H](O)[C@H]2O[C@H]2C[C@](C)(N)[C@H](O)[C@H](C)O2)Oc2ccc(cc2Cl)[C@H]1O [vancomycin] | only slightly increased | significantly synergistic | Neither oxacillin nor vancomycin alone significantly eradicated | does not increase much the eradication | 5% | Neither oxacillin nor vancomycin (FIG. 2, FIG. 3) alone significantly eradicated | synergistically enhanced; also recorded: significantly synergistic |  |  |  |  | 
2 | WR12: de novo designed synthetic antimicrobial peptide; N-terminal-cysteine form CRWWRWWRRWWRR (SEQ ID NO: 2) (N-terminal cysteine) |  |  |  |  |  |  |  | greater than 95% | negligible | potent antibacterial activity |  | 
3 | Cc1onc(-c2ccccc2)c1C(=O)N[C@@H]1C(=O)N2[C@@H]1SC(C)(C)[C@@H]2C(=O)O [oxacillin] | only slightly increased | significantly synergistic; also recorded: significant empirical synergism | Neither oxacillin nor vancomycin alone significantly eradicated |  |  | Neither oxacillin nor vancomycin (FIG. 2, FIG. 3) alone significantly eradicated | synergistically enhanced; also recorded: significantly synergistic |  |  |  | 74% | 
4 | LL-37: human cathelicidin antimicrobial peptide; N-terminal-cysteine form CLLGDFFRKSKEKIGKEFKRIVQRIKDFLRNLVPRTES (SEQ ID NO: 1) (N-terminal cysteine) |  |  |  |  |  |  |  |  |  |  |  | non-toxic
